Assay results as given in patent US20230017045A1, “PYRIDINE AND PYRIMIDINE CARBOXYLATE HERBICIDES AND METHODS OF USE THEREOF” (Dow AgroSciences LLC, priority 2017, published 2023).

System: test plant species
Experiment: Post-emergent herbicidal activity test (greenhouse, foliar spray, visual growth reduction)
Assay type: in vivo
Conditions: post-emergence, 336 h, ALOMY: blackgrass (Alopecurus myosuroides), 140 g ai/ha, 14 days after application, read-out: Visual Growth Reduction (%) 14 Days After Application, ALOMY
Method: Post-emergent Test: Seeds or nutlets of the desired test plant species were planted in Sun Gro Metro-Mix® 360 planting mixture, which typically has a pH of 6.0 to 6.8 and an organic matter content of about 30 percent, in plastic pots with a surface area of 64 square centimeters. In some aspects, to ensure good germination and healthy plants, a fungicide treatment and/or other chemical or physical treatment was applied. The plants were grown for 7-21 d in a greenhouse with an approximate 15 h photoperiod which was maintained at 23-29° C. during the day and 22-28° C. during the night. Nutrients and water were added on a regular basis and supplemental lighting was provided with overhead metal halide 1000-Watt lamps as necessary. Plants were used for testing when they reached the first or second true leaf stage. A weighed amount, determined by the highest rate to be tested, of each test compound was placed in a 25 mL glass vial and was dissolved in 4 mL of a 97:3 v/v mixture of acetone and DMSO to obtain concentrated stock solutions. […] The concentrated stock solutions obtained were diluted with 20 mL of an aqueous mixture containing acetone, water, isopropyl alcohol, DMSO, […] crop oil concentrate, and X-77 surfactant in a 48.5:39:10:1.5:1.0:0.02 v/v ratio to obtain spray solutions containing the application rate. Compound requirements are based upon a 12 mL application volume at a rate of 187 liters per hectare (L/ha). Formulated compounds were applied to the plant material with an overhead Mandel track sprayer equipped with […] nozzles calibrated to deliver 187 L/ha over an application area of 0.64 square meters at a spray height of 18 inches (43 cm) above the average plant canopy height. Control plants were sprayed in the same manner with the solvent blank. The treated plants and control plants were placed in a greenhouse as described above and watered by subirrigation to prevent wash-off of the test compounds. After 14 d, the condition of the test plants as compared with that of the nontreated and control plants was determined visually and scored on a scale of 0 to 100 percent where 0 corresponds to no injury and 100 corresponds to complete control. In the reporting of the results, Table A: Percent Growth Reduction Conversion Table was used.

**Q.** `COC(=O)c1nc(-c2ccc(C(C)(F)F)cc2Cl)ccc1Cl` [F112, Methyl 3-chloro-6-(2-chloro-4-(1,1-difluoroethyl)phenyl) picolinate] was tested. Which pest or weed control at 140 g/ha did it give?
**A.** 60 to 74%

Same assay, conditions: post-emergence, 336 h, AMARE: redroot pigweed (Amaranthus retroflexus), 140 g ai/ha, 14 days after application, read-out: Visual Growth Reduction (%) 14 Days After Application, AMARE

**Q.** With `COC(=O)c1nc(-c2ccc(C(C)(F)F)cc2Cl)ccc1Cl` [F112, Methyl 3-chloro-6-(2-chloro-4-(1,1-difluoroethyl)phenyl) picolinate] as the compound, how does the pest or weed control at 140 g/ha read?
**A.** 95 to 100%

Same assay, conditions: post-emergence, 336 h, AVEFA: wild oat (Avena fatua), 140 g ai/ha, 14 days after application, read-out: Visual Growth Reduction (%) 14 Days After Application, AVEFA

**Q.** How did the pest or weed control at 140 g/ha turn out when `COC(=O)c1nc(-c2ccc(C(C)(F)F)cc2Cl)ccc1Cl` [F112, Methyl 3-chloro-6-(2-chloro-4-(1,1-difluoroethyl)phenyl) picolinate] was run?
**A.** 95 to 100%

Same assay, conditions: post-emergence, 336 h, CHEAL: lambsquarters (Chenopodium album), 140 g ai/ha, 14 days after application, read-out: Visual Growth Reduction (%) 14 Days After Application, CHEAL

**Q.** With `COC(=O)c1nc(-c2ccc(C(C)(F)F)cc2Cl)ccc1Cl` [F112, Methyl 3-chloro-6-(2-chloro-4-(1,1-difluoroethyl)phenyl) picolinate] as the compound, how does the pest or weed control at 140 g/ha read?
**A.** 95 to 100%

Same assay, conditions: post-emergence, 336 h, CIRAR: canada thistle (Cirsium arvense), 140 g ai/ha, 14 days after application, read-out: Visual Growth Reduction (%) 14 Days After Application, CIRAR

**Q.** For `COC(=O)c1nc(-c2ccc(C(C)(F)F)cc2Cl)ccc1Cl` [F112, Methyl 3-chloro-6-(2-chloro-4-(1,1-difluoroethyl)phenyl) picolinate], which pest or weed control at 140 g/ha is on record?
**A.** 95 to 100%

Same assay, conditions: post-emergence, 336 h, CYPES: yellow nutsedge (Cyperus esculentus), 140 g ai/ha, 14 days after application, read-out: Visual Growth Reduction (%) 14 Days After Application, CYPES

**Q.** How did the pest or weed control at 140 g/ha turn out when `COC(=O)c1nc(-c2ccc(C(C)(F)F)cc2Cl)ccc1Cl` [F112, Methyl 3-chloro-6-(2-chloro-4-(1,1-difluoroethyl)phenyl) picolinate] was run?
**A.** 45 to 59%

Same assay, conditions: post-emergence, 336 h, DIGSA: crabgrass (Digitaria sanguinalis), 140 g ai/ha, 14 days after application, read-out: Visual Growth Reduction (%) 14 Days After Application, DIGSA

**Q.** How did the pest or weed control at 140 g/ha turn out when `COC(=O)c1nc(-c2ccc(C(C)(F)F)cc2Cl)ccc1Cl` [F112, Methyl 3-chloro-6-(2-chloro-4-(1,1-difluoroethyl)phenyl) picolinate] was run?
**A.** 85 to 94%

Same assay, conditions: post-emergence, 336 h, ECHCG: barnyardgrass (Echinochloa crus-galli), 140 g ai/ha, 14 days after application, read-out: Visual Growth Reduction (%) 14 Days After Application, ECHCG

**Q.** With `COC(=O)c1nc(-c2ccc(C(F)F)cc2)ncc1Cl` [F319, Methyl 5-chloro-2-(4-(difluoromethyl)phenyl)pyrimidine-4-carboxylate] as the compound, how does the pest or weed control at 140 g/ha read?
**A.** 0 to 29%

**Q.** How did the pest or weed control at 140 g/ha turn out when `COC(=O)c1nc(-c2ccc(C(C)(F)F)cc2Cl)ccc1Cl` [F112, Methyl 3-chloro-6-(2-chloro-4-(1,1-difluoroethyl)phenyl) picolinate] was run?
**A.** 75 to 84%

Same assay, conditions: post-emergence, 336 h, IPOHE: ivy-leaf morning glory (Ipomoea hederacea), 140 g ai/ha, 14 days after application, read-out: Visual Growth Reduction (%) 14 Days After Application, IPOHE

**Q.** For `COC(=O)c1nc(-c2ccc(C(F)F)cc2)ncc1Cl` [F319, Methyl 5-chloro-2-(4-(difluoromethyl)phenyl)pyrimidine-4-carboxylate], which pest or weed control at 140 g/ha is on record?
**A.** 30 to 44%

**Q.** With `COC(=O)c1nc(-c2ccc(C(C)(F)F)cc2Cl)ccc1Cl` [F112, Methyl 3-chloro-6-(2-chloro-4-(1,1-difluoroethyl)phenyl) picolinate] as the compound, how does the pest or weed control at 140 g/ha read?
**A.** 95 to 100%

Same assay, conditions: post-emergence, 336 h, KCHSC: kochia (Bassia scoparia), 140 g ai/ha, 14 days after application, read-out: Visual Growth Reduction (%) 14 Days After Application, KCHSC

**Q.** Which pest or weed control at 140 g/ha does the source give for `COC(=O)c1nc(-c2ccc(C(F)F)cc2)ncc1Cl` [F319, Methyl 5-chloro-2-(4-(difluoromethyl)phenyl)pyrimidine-4-carboxylate] here?
**A.** 0 to 29%

**Q.** How did the pest or weed control at 140 g/ha turn out when `COC(=O)c1nc(-c2ccc(C(C)(F)F)cc2Cl)ccc1Cl` [F112, Methyl 3-chloro-6-(2-chloro-4-(1,1-difluoroethyl)phenyl) picolinate] was run?
**A.** 95 to 100%

Same assay, conditions: post-emergence, 336 h, ORYSA: rice (Oryza sativa), 140 g ai/ha, 14 days after application, read-out: Visual Growth Reduction (%) 14 Days After Application, ORYSA

**Q.** With `COC(=O)c1nc(-c2ccc(C(F)F)cc2)ncc1Cl` [F319, Methyl 5-chloro-2-(4-(difluoromethyl)phenyl)pyrimidine-4-carboxylate] as the compound, how does the pest or weed control at 140 g/ha read?
**A.** 0 to 29%

**Q.** For `COC(=O)c1nc(-c2ccc(C(C)(F)F)cc2Cl)ccc1Cl` [F112, Methyl 3-chloro-6-(2-chloro-4-(1,1-difluoroethyl)phenyl) picolinate], which pest or weed control at 140 g/ha is on record?
**A.** 0 to 29%

Same assay, conditions: post-emergence, 336 h, SETFA: giant foxtail (Setaria faberi), 140 g ai/ha, 14 days after application, read-out: Visual Growth Reduction (%) 14 Days After Application, SETFA

**Q.** For `COC(=O)c1nc(-c2ccc(C(F)F)cc2)ncc1Cl` [F319, Methyl 5-chloro-2-(4-(difluoromethyl)phenyl)pyrimidine-4-carboxylate], which pest or weed control at 140 g/ha is on record?
**A.** 0 to 29%

**Q.** For `COC(=O)c1nc(-c2ccc(C(C)(F)F)cc2Cl)ccc1Cl` [F112, Methyl 3-chloro-6-(2-chloro-4-(1,1-difluoroethyl)phenyl) picolinate], which pest or weed control at 140 g/ha is on record?
**A.** 60 to 74%

Same assay, conditions: post-emergence, 336 h, SORVU: grain sorghum (Sorghum vulgare), 140 g ai/ha, 14 days after application, read-out: Visual Growth Reduction (%) 14 Days After Application, SORVU

**Q.** For `COC(=O)c1nc(-c2ccc(C(F)F)cc2)ncc1Cl` [F319, Methyl 5-chloro-2-(4-(difluoromethyl)phenyl)pyrimidine-4-carboxylate], which pest or weed control at 140 g/ha is on record?
**A.** 0 to 29%

**Q.** Which pest or weed control at 140 g/ha does the source give for `COC(=O)c1nc(-c2ccc(C(C)(F)F)cc2Cl)ccc1Cl` [F112, Methyl 3-chloro-6-(2-chloro-4-(1,1-difluoroethyl)phenyl) picolinate] here?
**A.** 95 to 100%

Same assay, conditions: post-emergence, 336 h, STEME: common chickweed (Stellaria media), 140 g ai/ha, 14 days after application, read-out: Visual Growth Reduction (%) 14 Days After Application, STEME

**Q.** Which pest or weed control at 140 g/ha does the source give for `COC(=O)c1nc(-c2ccc(C(F)F)cc2)ncc1Cl` [F319, Methyl 5-chloro-2-(4-(difluoromethyl)phenyl)pyrimidine-4-carboxylate] here?
**A.** 0 to 29%

Same assay, conditions: post-emergence, 336 h, TRZAS: wheat, spring (Triticum aestivum), 140 g ai/ha, 14 days after application, read-out: Visual Growth Reduction (%) 14 Days After Application, TRZAS

**Q.** Which pest or weed control at 140 g/ha does the source give for `COC(=O)c1nc(-c2ccc(C(F)F)cc2)ncc1Cl` [F319, Methyl 5-chloro-2-(4-(difluoromethyl)phenyl)pyrimidine-4-carboxylate] here?
**A.** 0 to 29%

**Q.** For `COC(=O)c1nc(-c2ccc(C(C)(F)F)cc2Cl)ccc1Cl` [F112, Methyl 3-chloro-6-(2-chloro-4-(1,1-difluoroethyl)phenyl) picolinate], which pest or weed control at 140 g/ha is on record?
**A.** 60 to 74%

Same assay, conditions: post-emergence, 336 h, blackgrass (Alopecurus myosuroides), 14 Days After Application, 140 g ai/ha, read-out: Visual Growth Reduction (%) ALOMY

**Q.** For `COC(=O)c1nc(-c2ccc(C(F)F)cc2)ncc1Cl` [F319, Methyl 5-chloro-2-(4-(difluoromethyl)phenyl)pyrimidine-4-carboxylate], which pest or weed control at 140 g/ha is on record?
**A.** 0 to 29%

Same assay, conditions: post-emergence, 336 h, canada thistle (Cirsium arvense), 14 Days After Application, 140 g ai/ha, read-out: Visual Growth Reduction (%) CIRAR

**Q.** Which pest or weed control at 140 g/ha does the source give for `COC(=O)c1nc(-c2ccc(C(F)F)cc2)ncc1Cl` [F319, Methyl 5-chloro-2-(4-(difluoromethyl)phenyl)pyrimidine-4-carboxylate] here?
**A.** 0 to 29%

Same assay, conditions: post-emergence, 336 h, crabgrass (Digitaria sanguinalis), 14 Days After Application, 140 g ai/ha, read-out: Visual Growth Reduction (%) DIGSA

**Q.** `COC(=O)c1nc(-c2ccc(C(F)F)cc2)ncc1Cl` [F319, Methyl 5-chloro-2-(4-(difluoromethyl)phenyl)pyrimidine-4-carboxylate] was tested. Which pest or weed control at 140 g/ha did it give?
**A.** 0 to 29%

Same assay, conditions: post-emergence, 336 h, lambsquarters (Chenopodium album), 14 Days After Application, 140 g ai/ha, read-out: Visual Growth Reduction (%) CHEAL

**Q.** How did the pest or weed control at 140 g/ha turn out when `COC(=O)c1nc(-c2ccc(C(F)F)cc2)ncc1Cl` [F319, Methyl 5-chloro-2-(4-(difluoromethyl)phenyl)pyrimidine-4-carboxylate] was run?
**A.** 30 to 44%

Same assay, conditions: post-emergence, 336 h, redroot pigweed (Amaranthus retroflexus), 14 Days After Application, 140 g ai/ha, read-out: Visual Growth Reduction (%) AMARE

**Q.** `COC(=O)c1nc(-c2ccc(C(F)F)cc2)ncc1Cl` [F319, Methyl 5-chloro-2-(4-(difluoromethyl)phenyl)pyrimidine-4-carboxylate] was tested. Which pest or weed control at 140 g/ha did it give?
**A.** 0 to 29%

Same assay, conditions: post-emergence, 336 h, wild oat (Avena fatua), 14 Days After Application, 140 g ai/ha, read-out: Visual Growth Reduction (%) AVEFA

**Q.** `COC(=O)c1nc(-c2ccc(C(F)F)cc2)ncc1Cl` [F319, Methyl 5-chloro-2-(4-(difluoromethyl)phenyl)pyrimidine-4-carboxylate] was tested. Which pest or weed control at 140 g/ha did it give?
**A.** 0 to 29%

Same assay, conditions: post-emergence, 336 h, yellow nutsedge (Cyperus esculentus), 14 Days After Application, 140 g ai/ha, read-out: Visual Growth Reduction (%) CYPES

**Q.** `COC(=O)c1nc(-c2ccc(C(F)F)cc2)ncc1Cl` [F319, Methyl 5-chloro-2-(4-(difluoromethyl)phenyl)pyrimidine-4-carboxylate] was tested. Which pest or weed control at 140 g/ha did it give?
**A.** 0 to 29%
